Laboratory results reported in patent US11427615B2, “Peptide compound and application thereof, and composition containing peptide compound” (XDCEXPLORER (SHANGHAI) CO., LTD., priority 2017, dated 2022).
Several values for one entry are separate records, joined by “and”; a condition that tells them apart may be missing. Equal entries are not always repeated. Starred links: 1 amine or outer side, 2 acyl side, 3 side chain; linkers in the order of their positions; H or OH if unused. Non-standard residues stand in square brackets, D forms with d. Residues, ends and D or L forms follow the SMILES beside them. *: point of attachment. X10 = CNC(=N)NCCC[C@H](NC(=O)[C@H](CC(C)C)NC(=O)NCN*)C(=O)N[C@@H](Cc1c[nH]c2ccccc12)C(N)=O; dPhe(2,4-Cl2) = N[C@H](Cc1ccc(Cl)cc1Cl)C(=O)O; X7 = c1ccc2c(C[C@H](N*)c3nn[nH]n3)c[nH]c2c1; Pro(4,4-F2) = O=C(O)[C@@H]1CC(F)(F)CN1; dAla(2-furyl) = N[C@H](Cc1ccco1)C(=O)O; dPhe(4-F) = N[C@H](Cc1ccc(F)cc1)C(=O)O; Arg(Me) = CNC(=N)NCCC[C@H](N)C(=O)O; Hyp = O=C(O)[C@@H]1C[C@@H](O)CN1; Cba = N[C@@H](CC1CCC1)C(=O)O; X15 = CN(NC(=O)[*:2])[*:1]; Ac6c = NC1(C(=O)O)CCCCC1; azaGly = NNC(=O)O

What follows are compounds tested against T1, human kiss1 receptor (GPR54) (Homo sapiens, UniProt Q969F8) (assay: Kiss1 receptor (GPR54) binding activity of agonists, FRET detection in NFAT-bla CHO-K1 cells). Conditions: human kiss1 receptor (GPR54), NFAT-bla CHO-K1 cells, FRET; preliminary data; method of effect Embodiment 1; read-out: Preliminary measurement data (GPR54) EC50.
T1 construct: host or cells: NFAT-bla CHO-K1 cells (Chinese hamster ovary), purchased recombinant cell line
T1 sequence (Q969F8 whole entry): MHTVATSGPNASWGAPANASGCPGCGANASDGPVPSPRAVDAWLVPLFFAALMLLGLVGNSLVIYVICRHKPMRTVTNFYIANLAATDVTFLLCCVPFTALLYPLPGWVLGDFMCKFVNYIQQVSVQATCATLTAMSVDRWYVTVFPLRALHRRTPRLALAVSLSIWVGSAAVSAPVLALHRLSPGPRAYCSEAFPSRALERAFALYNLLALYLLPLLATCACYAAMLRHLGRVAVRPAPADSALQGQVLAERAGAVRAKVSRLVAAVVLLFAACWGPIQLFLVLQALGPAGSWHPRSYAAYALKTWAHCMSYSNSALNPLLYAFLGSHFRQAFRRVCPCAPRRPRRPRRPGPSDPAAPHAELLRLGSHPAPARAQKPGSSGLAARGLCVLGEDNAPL
Assay type: cell-based
Description: Effect Embodiment 1 Determination of Kiss1 Receptor (GPR54) Binding Activity of Kiss1 Receptor (GPR54) Agonist
The binding activity test of each compound from the above the embodiments with kiss1 receptor (GPR54) was performed by fluorescence energy resonance transfer (FRET) detection technology to detect EC50 values of polypeptides and peptide analogs. The cells used in this experiment were NFAT-bla CHO-K1 cells (k1720, invitrogen, thermosher) that express human kiss1 receptor (GPR54). The specific operations were as follows:
Day 1: Seeding Cells in Plate
1. Microscope (CKX41, OLYMPUS), object lens×4 times, ocular lens×10 times. The cells were ensured in a good condition.
2. Digesting the cells, adding 3 ml of 0.05% pancreatin into a culture dish; cells were placed in a 37° C., 5% CO2 incubator for 2 minutes (Thermo Fisher). After the cells became round under the microscope, 7 ml of culture medium was added. The formula of culture medium was as follows: DMEM 90%, dialzedfbS10, NEAA 0.1 mM, HEPES 25 mM, Penicillin 100 U/ml, Streptomycin 100 μm/ml, pH7.3. After blowing and stirring, it was transferred to 15 mL centrifuge tube (430790, Corning). Centrifuge at 1000 rpm for 5 min (5810R, Eppendorf) and the supernatant was discard.
3. Adding 7 mL of culture medium (DMEM+0.1% BSA), it was pipetting into single cell suspension, after counting with Bio-RAD counter, the cell density was adjusted to 312,500 cells/ml.
4. Cells were inoculated into 384 well plates at 32 μL per well, and the cell number was controlled at 10000 cells/well. 32 μl of culture medium was added into the blank control.
Day 2: Dosing and Data Analysis
1) The compound to be tested was prepared into 50 mM working solution with DMSO.
2) 40 μl of the working solution of the compound to be tested was added into column 2 of row A-H of U-shaped 96-well plate (3797, comings), and 60 μl of DMSO was added into column 3-11. 20 μl of compound solution was sucked from the second column to the third column with a multichannel pipette blowing and stirring evenly; 20 μl of compound solution was absorbed from the third column with a multichannel pipette, then added into the fourth column, blowed and stirred to mix well; the compound was serially diluted 4-fold to a total of 10 concentrations. Column 1 and column 12 of 96-well plates were supplemented with 40 μl DMSO.
2. Intermediate Plate Configuration
1) AU-shaped 96-well plate was used, 199 μL of culture medium (DMEM+0.1% BSA) was added to each well, 1 μL of diluted compound (or DMSO) was sucked from 1000× compound plate and added into the 96-well plate at the corresponding position, blowed and stirred to mix well.
2) Homemade positive compounds and compounds to be tested were added. The cell culture plate was took out from the incubator and cells state was observed under microscope. Diluted compound in the intermediate plate or DMSO was added into the cell, 8 μl per well.
3) Cells were cultured in 37° C. and 5% CO2 for 4 hours.
3. The Substrate was Added to Detect the Binding of the Drug to the Receptor
1) 1 μmol/L CCF-4AM solution and buffer solution B, C, D were equilibrated to room temperature. LiveBLAZER™-FRET B/G Loading Kit (K1095, thermo Fisher) containing CCF-4AM and solution B, solution C, solution D were also available from Invitrogen (K1157, thermo Fisher).
2) 6× loading solution was prepared: 6 μl of CCF-4AM dissolved solution A, 60 μl of solution b, 904 μl of solution c, and 30 μl of solution D were pipetted into EP tube, blowed and stirred to mix well.
3) 8 μl of the above-mentioned liquid was sucked with a multichannel pipette, added into a 96-well plate, and incubated for 2 hours at room temperature.
4) The PerkinElmer detector was used to detect the luminous signals of each hole. FI mode, λex=409 nm, λem1=460 nm, λem2=530 nm.
4. Data Processing Using Graphpad Prism 5 (GraphPad Software. Inc)
Effective rate %=(Signal−Min)/(Max−Min)×100%.

SMILES | EC50
CNC(=N)NCCC[C@H](NC(=O)[C@H](CC(C)C)NC(=O)C1(NC(=O)[C@H](Cc2ccccc2)NC(=O)[C@@H](NC(=O)[C@H](CC(N)=O)NC(=O)C2(NC(=O)[C@@H](Cc3ccc(F)cc3)NC(C)=O)CCCCC2)[C@@H](C)O)CCCCC1)C(=O)N[C@@H](Cc1c[nH]c2ccccc12)C(N)=O [YA-244, Ac-[D-Phe(4-F)]-A6c-Asn-Thr-Phe-A6c-Leu-Arg(Me)-Trp-NH2] (Ac-[dPhe(4-F)][Ac6c]NTF[Ac6c]L[Arg(Me)]W-NH2; C-terminus assumed) | 1.17 nM
CNC(=N)NCCC[C@H](NC(=O)[C@H](CC(C)C)NC(=O)[C@@H]1C[C@@H](O)CN1C(=O)[C@H](Cc1ccccc1)NC(=O)[C@@H](NC(=O)[C@H](CC(N)=O)NC(=O)C1(NC(=O)[C@@H](Cc2ccc(O)cc2)NC(C)=O)CCCCC1)[C@@H](C)O)C(=O)N[C@@H](Cc1c[nH]c2ccccc12)C(N)=O [YA-245, Ac-(D-Tyr)-A6c-Asn-Thr-Phe-Hyp-Leu-Arg(Me)-Trp-NH2] (Ac-[dY][Ac6c]NTF[Hyp]L[Arg(Me)]W-NH2) | 26 nM
CNC(=N)NCCC[C@H](NC(=O)[C@H](CC(C)C)NC(=O)NNC(=O)[C@H](Cc1ccccc1)NC(=O)[C@@H](NC(=O)[C@H](CC(N)=O)NC(=O)[C@@H]1C[C@@H](O)CN1C(=O)[C@@H](Cc1ccc(O)cc1)NC(C)=O)[C@@H](C)O)C(=O)N[C@@H](Cc1c[nH]c2ccccc12)C(=O)O [YA-246, Ac-(D-Tyr)-Hyp-Asn-Thr-Phe-azaGly-Leu-Arg(Me)-Trp-OH] (Ac-[dY][Hyp]NTF[azaGly]L[Arg(Me)]W-OH) | 2.86 nM
CNC(=N)NCCC[C@H](NC(=O)[C@H](CC(C)C)NC(=O)NN(C)C(=O)[C@H](Cc1ccccc1)NC(=O)[C@@H](NC(=O)[C@H](CC(N)=O)NC(=O)[C@@H]1C[C@@H](O)CN1C(=O)[C@@H](Cc1ccc(O)cc1)NC(C)=O)[C@@H](C)O)C(=O)N[C@@H](Cc1c[nH]c2ccccc12)C(N)=O [YA-247, Ac-(D-Tyr)-Hyp-Asn-Thr-Phe-azaNMeGly-Leu-Arg(Me)-Trp-NH2] (Ac-[dY][Hyp]NTF[X15]L[Arg(Me)]W-NH2) | 11 nM
CNC(=N)NCCC[C@H](NC(=O)[C@H](CC(C)C)NC(=O)NNC(=O)[C@H](Cc1ccccc1)NC(=O)[C@@H](NC(=O)[C@H](CC(N)=O)NC(=O)[C@@H]1C[C@@H](O)CN1C(=O)[C@@H](Cc1ccc(O)cc1)NC(C)=O)[C@@H](C)O)C(=O)N[C@@H](Cc1c[nH]c2ccccc12)c1nn[nH]n1 [YA-250, Ac-(D-Tyr)-Hyp-Asn-Thr-Phe-azaG-Leu-Arg(Me)-Trp-2H-tetrazol-5-yl] (Ac-[dY][Hyp]NTF[azaGly]L[Arg(Me)]-X7) | 7.5 nM and 15.4 nM
CNC(=N)NCCC[C@H](NC(=O)[C@H](CC(C)C)NC(=O)C1(NC(=O)[C@H](Cc2ccccc2)NC(=O)[C@@H](NC(=O)[C@H](CC(N)=O)NC(=O)[C@@H]2CC(F)(F)CN2C(=O)[C@@H](Cc2ccc(Cl)cc2Cl)NC(C)=O)[C@@H](C)O)CCCCC1)C(=O)N[C@@H](Cc1c[nH]c2ccccc12)C(=O)NC [YA-253, Ac-D-Phe(2,4-DiCl)-DiFluorPro-Asn-Thr-Phe-A6c-Leu-Arg(Me)-Trp-NHMe] (Ac-[dPhe(2,4-Cl2)][Pro(4,4-F2)]NTF[Ac6c]L[Arg(Me)]W-NHMe) | 97.8 nM
CNC(=N)NCCC[C@H](NC(=O)[C@H](CC(C)C)NC(=O)NCNC(=O)[C@H](Cc1ccccc1)NC(=O)[C@@H](NC(=O)[C@H](CC(N)=O)NC(=O)[C@@H]1C[C@@H](O)CN1C(=O)[C@@H](Cc1ccc(O)cc1)NC(C)=O)[C@@H](C)O)C(=O)N[C@@H](Cc1c[nH]c2ccccc12)C(N)=O [YA-256, Ac-(D-Tyr)-Hyp-Asn-Thr-Phe-ψ(NH—CO—NH)Gly-Leu-Arg(Me)-Trp-NH2] (Ac-[dY][Hyp]NTF-X10) | 2.6 nM
CNC(=N)NCCC[C@H](NC(=O)[C@H](CC(C)C)NC(=O)C1(NC(=O)[C@H](Cc2ccccc2)NC(=O)[C@@H](NC(=O)[C@H](CC(N)=O)NC(=O)C2(NC(=O)[C@@H](Cc3ccc(Cl)cc3Cl)NC(C)=O)CCCCC2)[C@@H](C)O)CCCCC1)C(=O)N[C@@H](Cc1c[nH]c2ccccc12)C(N)=O [YA-259, Ac-D-Phe(2,4-DiCl)-A6c-Asn-Thr-Phe-Abc-Leu-Arg(Me)-Trp-NH2] (Ac-[dPhe(2,4-Cl2)][Ac6c]NTF[Ac6c]L[Arg(Me)]W-NH2) | 3.2 nM
CNC(=N)NCCC[C@H](NC(=O)[C@H](CC(C)C)NC(=O)C1(NC(=O)[C@H](Cc2ccccc2)NC(=O)[C@@H](NC(=O)[C@H](CC(N)=O)NC(=O)C2(NC(=O)[C@@H](Cc3ccco3)NC(C)=O)CCCCC2)[C@@H](C)O)CCCCC1)C(=O)N[C@@H](Cc1c[nH]c2ccccc12)C(N)=O [YA-272, Ac-3-(2-furyl)-D-alanine-A6c-Asn-Thr-Phe-A6c-Leu-Arg(Me)-Trp-NH2] (Ac-[dAla(2-furyl)][Ac6c]NTF[Ac6c]L[Arg(Me)]W-NH2) | 7.95 nM
CNC(=N)NCCC[C@H](NC(=O)[C@H](CC(C)C)NC(=O)[C@H](CC1CCC1)NC(=O)[C@H](Cc1ccccc1)NC(=O)[C@@H](NC(=O)[C@H](CC(N)=O)NC(=O)[C@@H]1C[C@@H](O)CN1C(=O)[C@@H](Cc1ccc(O)cc1)NC(C)=O)[C@@H](C)O)C(=O)N[C@@H](Cc1c[nH]c2ccccc12)C(N)=O [YA-284, Ac-(D-Tyr)-Hyp-Asn-Thr-Phe-Cba-Leu-Arg(Me)-Trp-NH2] (Ac-[dY][Hyp]NTF[Cba]L[Arg(Me)]W-NH2) | 1.7 nM
